Values after ≈ are worked out from the molar mass of the structure shown. Values joined by “and” are separate entries in the source; they are usually repeats but may differ in a detail not shown here. Equal entries are not always repeated. Where two headings read alike, the source gives them in different places.
Key:
Pseudomonas aeruginosa = details: cited from earlier work
Escherichia coli = details: cited from earlier work
E. coli [1] = details: cited from earlier work
S. aureus [2] = details: cited from earlier work
B. subtilis = details: cited from earlier work
WI38 cells [3] = details: read-out: WI-38 IC50 ± SD; normal WI38 cells, MTT; cited from earlier work
S. aureus [4] = details: cited from earlier work; remark: listed apart in the source
E. coli [5] = assay: Time-kill kinetic test; format: cell-based; details: 1x MIC
E. cloacae = assay: Broth dilution MIC/MBC; format: cell-based, Enterobacter cloacae
E. coli [6] = assay: Broth dilution MIC/MBC; format: cell-based, Escherichia coli
WI38 cells [7] = assay: In vitro cytotoxicity MTT assay; details: Homo sapiens, WI-38, 48 h, read-out: WI-38 IC50 ± SD
DNA gyrase A = DNA gyrase A (Escherichia coli, UniProt P0AES4); assay: DNA gyrase supercoiling assay; format: biochemical; details: IC50 ± SD DNA gyrase A, E. coli DNA gyrase supercoiling
DNA gyrase A, sequence (P0AES4 whole entry): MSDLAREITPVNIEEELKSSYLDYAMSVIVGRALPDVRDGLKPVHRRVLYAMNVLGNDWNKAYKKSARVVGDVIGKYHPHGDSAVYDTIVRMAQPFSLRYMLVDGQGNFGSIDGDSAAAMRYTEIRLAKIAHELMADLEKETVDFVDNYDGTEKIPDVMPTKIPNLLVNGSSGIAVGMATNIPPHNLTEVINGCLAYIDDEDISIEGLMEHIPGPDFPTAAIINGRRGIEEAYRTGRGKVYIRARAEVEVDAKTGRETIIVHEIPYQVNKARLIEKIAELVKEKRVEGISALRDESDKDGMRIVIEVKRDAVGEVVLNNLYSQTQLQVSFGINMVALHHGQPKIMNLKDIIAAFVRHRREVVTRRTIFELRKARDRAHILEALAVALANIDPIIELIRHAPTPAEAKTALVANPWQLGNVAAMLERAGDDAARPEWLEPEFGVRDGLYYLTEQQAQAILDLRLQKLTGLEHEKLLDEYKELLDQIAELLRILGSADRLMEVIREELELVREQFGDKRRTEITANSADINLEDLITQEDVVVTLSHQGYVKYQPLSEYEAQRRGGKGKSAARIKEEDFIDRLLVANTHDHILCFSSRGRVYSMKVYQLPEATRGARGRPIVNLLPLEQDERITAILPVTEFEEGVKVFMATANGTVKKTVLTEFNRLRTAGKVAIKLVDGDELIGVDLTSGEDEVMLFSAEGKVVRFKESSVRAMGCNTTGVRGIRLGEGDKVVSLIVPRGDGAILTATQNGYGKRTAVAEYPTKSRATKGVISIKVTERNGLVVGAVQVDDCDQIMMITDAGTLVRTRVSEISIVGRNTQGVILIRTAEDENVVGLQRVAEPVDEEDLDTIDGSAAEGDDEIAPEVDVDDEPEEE

C. albicans [8] = assay: Broth dilution MIC/MFC; format: cell-based, Candida albicans
S. faecalis = assay: Broth dilution MIC/MBC; format: cell-based, Streptococcus faecalis
S. cerevisiae = assay: Broth dilution MIC/MFC; format: cell-based, Saccharomyces cerevisiae
B. pumilus = assay: Broth dilution MIC/MBC; format: cell-based, Bacillus pumilus
C. albicans [9] = details: cited from earlier work
Aspergillus fumigatus = details: cited from earlier work
[10] = tested on: methicillin-resistant S. aureus; details: cited from earlier work

Structure (SMILES): [H]/N=C(/N)N[C@H]1[C@H](O)[C@@H](O)[C@H](O[C@@H]2O[C@@H](C)[C@](O)(C=O)[C@H]2O[C@@H]2O[C@@H](CO)[C@H](O)[C@@H](O)[C@@H]2NC)[C@@H](N/C(N)=N\[H])[C@@H]1O [streptomycin]
- IZ Pseudomonas aeruginosa (Pseudomonas aeruginosa): 24 mm
- IZ E. coli (Escherichia coli): 25 mm

Structure (SMILES): CC1(C)S[C@@H]2[C@H](NC(=O)[C@H](N)c3ccc(O)cc3)C(=O)N2[C@H]1C(=O)O [amoxicillin]
- MIC E. coli (E. coli [1]): 0.01 µM (≈ 3.65 ng/mL)

Structure (SMILES): N[C@@H](C(=O)N[C@@H]1C(=O)N2C(C(=O)O)=C(Cl)CS[C@H]12)c1ccccc1 [cefaclor]
- MIC S. aureus (S. aureus [2]): 2.4 µg/mL (≈ 6.53 µM)
- MIC B. subtilis (B. subtilis): 2.4 µg/mL (≈ 6.53 µM)

Structure (SMILES): O=C(O)c1cn(C2CC2)c2cc(N3CCNCC3)c(F)cc2c1=O [Cipro., ciprofloxacin]
- IC50 (WI38 cells [3]): 23.9 ± 1.58 µM
- IZ S. aureus (S. aureus [4]): 22 mm

Structure (SMILES): CC(=O)Oc1ccc(-c2c(C(N)=O)c(N)n(N)c(=O)c2C#N)cc1 [Compound 3e, 4-(1,6-diamino-5-carbamoyl-3-cyano-2-oxo-1,2-dihydropyridin-4-yl)phenyl acetate]
- Time to bactericidal activity against E. coli (E. coli [5]): 90 to 120 min and 120 min
- MBC/ MIC ratio E. cloacae (E. cloacae): 4
- MBC (E. cloacae; Enterobacter cloacae, read-out: MBC E. cloacae): 62.5 µg/mL
- MIC (E. cloacae; Enterobacter cloacae, read-out: MIC E. cloacae): 15.6 µg/mL
- MBC/ MIC ratio E. coli (E. coli [6]): 4
- MBC (E. coli [6]; Escherichia coli, read-out: MBC E. coli): 15.6 µg/mL
- MIC (E. coli [6]; Escherichia coli, read-out: MIC E. coli): 3.91 µg/mL
- IC50 (WI38 cells [7]): 43.2 ± 1.7 µM
- IC50 (DNA gyrase A): 11.5 µM
- MFC/ MIC ratio C. albicans (C. albicans [8]): 2
- MFC (C. albicans [8]; Candida albicans, read-out: MFC C. albicans): 125 µg/mL
- MIC (C. albicans [8]; Candida albicans, read-out: MIC C. albicans, broth dilution): 62.5 µg/mL
- MBC/ MIC ratio S. faecalis (S. faecalis): 2
- MBC (S. faecalis; Enterococcus faecalis, read-out: MBC S. faecalis): 62.5 µg/mL
- MIC (S. faecalis; Enterococcus faecalis, read-out: MIC S. faecalis): 31.3 µg/mL
- MFC/ MIC ratio S. cerevisiae (S. cerevisiae): 2
- MFC (S. cerevisiae; Saccharomyces cerevisiae, read-out: MFC S. cerevisiae): 125 µg/mL
- MIC (S. cerevisiae; Saccharomyces cerevisiae, read-out: MIC S. cerevisiae): 62.5 µg/mL
- MBC/ MIC ratio B. pumilus (B. pumilus): 2
- MBC (B. pumilus; Bacillus pumilus, read-out: MBC B. pumilus): 125 µg/mL
- MIC (B. pumilus; Bacillus pumilus, read-out: MIC B. pumilus): 62.5 µg/mL

Structure (SMILES): C[C@@H]1[C@H](O)[C@@H](C)/C=C/C=C/C=C/C=C/C=C/C=C/C=C/[C@H](O[C@@H]2O[C@H](C)[C@@H](O)[C@H](N)[C@@H]2O)C[C@@H]2O[C@](O)(C[C@@H](O)C[C@@H](O)[C@H](O)CC[C@@H](O)C[C@@H](O)CC(=O)O[C@H]1C)C[C@H](O)[C@H]2C(=O)O [amphotericin B]
- MIC C. albicans (C. albicans [9]): 1.95 µg/mL (≈ 2.11 µM)
- MIC Aspergillus fumigatus (Aspergillus fumigatus): 1.95 µg/mL (≈ 2.11 µM)

Structure (SMILES): CN[C@H](CC(C)C)C(=O)N[C@H]1C(=O)N[C@@H](CC(N)=O)C(=O)N[C@H]2C(=O)N[C@H]3C(=O)N[C@H](C(=O)N[C@H](C(=O)O)c4cc(O)cc(O)c4-c4cc3ccc4O)[C@H](O)c3ccc(c(Cl)c3)Oc3cc2cc(c3O[C@@H]2O[C@H](CO)[C@@H](O)[C@H](O)[C@H]2O[C@H]2C[C@](C)(N)[C@H](O)[C@H](C)O2)Oc2ccc(cc2Cl)[C@H]1O [vancomycin]
- MIC methicillin-resistant S. aureus [10]: 1 µg/mL (≈ 0.69 µM)
